Measured values taken from patent US6569878B1, “Substituted 4-amino-thiazol-2-yl compounds as cyclin-dependent kinase inhibitors” (Agouron Pharmaceuticals Inc., priority 1997, dated 2003).
Structures can show the parent of a compound that is named as a salt.

Experiments:
CDK2/cyclin A = biological target: T1, CDK2/cyclin A (Homo sapiens, UniProt P24941); test: Inhibition of CDK2/cyclin A retinoblastoma kinase activity; type: biochemical; conditions: read-out: Ki CDK 2/A
T1 construct: made in house; host or cells: CDK2: insect cells (baculovirus); cyclin A: E. coli, then limited proteolysis
How it was run: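 Baculovirus-expressed CDK2 with excess proteolyzed cyclin A (or purified complex), 150 nM or 5 nM, phosphorylating an Rb fragment with 25 μM [32/33P]ATP, pH 7.4, 30° C, 20 min. Filter-captured radioactivity by phosphorimager; apparent Ki from fits to competitive or tight-binding competitive inhibition using measured ATP Km.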

HCT116 = test: Inhibition of cell growth, MTT assay, HCT116; type: cell-based, human; conditions: for IC50 / IC90: Homo sapiens, HCT-116
Method: (§1) The water-insoluble purple formazan product was then detected spectrophotometrically. […] Plates were incubated for four hours before addition of inhibitor compounds. Different concentrations of inhibitor compounds were added in 0.5% (v/v) dimethylsulfoxide (15 μL/well), and cells were incubated at 37° C. (5% CO2) for four to six days (depending on cell type). At the end of the incubation, MTT was added to a final concentration of 0.2 mg/mL, and cells were incubated for 4 hours more at 37° C. After centrifugation of the plates and removal of medium, the absorbance of the formazan (solubilized in dimethylsulfoxide) was measured at 540 nm.

[1] = biological target: T2, complex of human CDK4 and cyclin D3 (Homo sapiens, UniProt P11802); test: Inhibition of CDK4/cyclin D retinoblastoma kinase activity (D-type cyclin is D3); type: biochemical; conditions: superscript a: D-type cyclin is D3; apparent Ki; read-out: Ki CDK 4/D
T2 construct: made in house; host or cells: insect cells, co-infected with baculovirus
How it was run: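 Apparent Ki derived by fitting background-corrected activity to competitive (or, for tight binders, competitive tight-binding) equations with measured ATP Km. Rb phosphorylation by radiolabelled ATP was measured at 30°C, 20 min standard or 60 min at 5 nM complex for tight binders, via nitrocellulose capture and phosphorimager.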

[2] = biological target: T3, human CDK1 (cdc2) and cyclin B (Homo sapiens, UniProt P06493); test: Inhibition of CDK1(cdc2)/cyclin B histone H1 kinase activity; type: biochemical; conditions: read-out: Ki CDK 1/B
T3 construct: purchased New England Biolabs (Beverly Mass.)
Method: Cyclin-dependent kinase activity was measured by quantifying the enzyme-catalyzed, time-dependent incorporation of radioactive phosphate from [^32P]ATP or [^33P]ATP into a protein substrate. Unless noted otherwise, assays were performed in 96-well plates in a total volume of 50 μL, in the presence of 10 mM HEPES (N-[2-hydroxyethyl]piperazine-N′-[2-ethanesulfonic acid]) (pH 7.4), 10 mM MgCl2, 25 μM adenosine triphosphate (ATP), 1 mg/mL ovalbumin, 5 μg/mL leupeptin, 1 mM dithiothreitol, 10 mM β-glycerophosphate, 0.1 mM sodium vanadate, 1 mM sodium fluoride, 2.5 mM ethylene glycol-bis(β-aminoethyl ether)-N,N,N′N′-tetraacetic acid (EGTA), 2% (v/v) dimethylsulfoxide, and 0.03-0.4 μCi [^32/33P]ATP per reaction. Reactions were initiated with enzyme, incubated at 30° C., and terminated after 20 minutes by the addition of ethylenediaminetetraacetic acid (EDTA) to 250 mM. The phosphorylated substrate was then captured on a nitrocellulose or phosphocellulose membrane using a 96-well filtration manifold, and unincorporated radioactivity was removed by repeated washing with 0.85% phosphoric acid. Radioactivity was quantified by exposing the dried membranes to a phosphorimager.
Apparent Ki values were measured by assaying enzyme activity in the presence of different inhibitor compound concentrations and subtracting the background radioactivity measured in the absence of enzyme. The kinetic parameters (kcat, Km for ATP) were measured for each enzyme under the usual assay conditions by determining the dependence of initial rates on ATP concentration. Inhibition data were fit to an equation for competitive inhibition using Kaleidagraph (Synergy Software), or were fit to an equation for competitive tight-binding inhibition using the software KineTic (BioKin, Ltd.).
The complex of human CDK1 (cdc2) and cyclin B was purchased from New England Biolabs (Beverly Mass.). Alternatively, a CDK1/glutathione-S-transferase-cyclin B1 complex was purified using glutathione affinity chromatography from insect cells that had been co-infected with the corresponding baculovirus expression vectors. The assay was executed as described above at 30° C. using 2.5 units of cdc2/cyclin B, 10 μg Histone H1 protein, and 0.1-0.3 μCi [^32/33P]ATP per assay. Phosphorylated histone substrate was captured by microfiltration on a phosphocellulose P81 membrane and quantified using a phosphorimager as described above. Ki values were measured using the described curve-fitting programs.

Saos-2 = test: Inhibition of cell growth, MTT assay, Saos-2; type: cell-based; conditions: Saos-2, MTT assay; for IC50 / IC90: Homo sapiens; for % inhibition of growth in parentheses after >25: concentration not given
Method: as §1

U2-OS = test: Inhibition of cell growth, MTT assay, U2-OS; type: cell-based; conditions: for IC50 / IC90: Homo sapiens, U2OS; for % inhibition of growth in parentheses after >25: concentration not given
Method: as §1

T2 sequence (P11802 whole entry): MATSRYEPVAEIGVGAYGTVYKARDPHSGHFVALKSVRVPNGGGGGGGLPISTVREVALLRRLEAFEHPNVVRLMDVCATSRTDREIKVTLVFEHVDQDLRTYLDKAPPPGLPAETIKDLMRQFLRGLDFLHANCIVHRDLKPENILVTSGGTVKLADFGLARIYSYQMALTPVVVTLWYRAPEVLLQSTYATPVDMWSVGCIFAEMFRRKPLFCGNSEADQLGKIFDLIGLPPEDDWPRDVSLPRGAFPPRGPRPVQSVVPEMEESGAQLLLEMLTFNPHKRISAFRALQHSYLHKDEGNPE
T2 sequence (P30281 whole entry partner): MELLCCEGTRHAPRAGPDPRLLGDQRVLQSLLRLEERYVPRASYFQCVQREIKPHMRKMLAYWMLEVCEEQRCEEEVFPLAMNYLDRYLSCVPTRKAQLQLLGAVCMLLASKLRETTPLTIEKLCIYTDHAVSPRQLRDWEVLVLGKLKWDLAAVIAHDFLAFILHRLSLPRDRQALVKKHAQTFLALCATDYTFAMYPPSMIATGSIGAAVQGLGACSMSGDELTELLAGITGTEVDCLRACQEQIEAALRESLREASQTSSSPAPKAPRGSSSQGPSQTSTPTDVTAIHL
T3 sequence (P06493 whole entry): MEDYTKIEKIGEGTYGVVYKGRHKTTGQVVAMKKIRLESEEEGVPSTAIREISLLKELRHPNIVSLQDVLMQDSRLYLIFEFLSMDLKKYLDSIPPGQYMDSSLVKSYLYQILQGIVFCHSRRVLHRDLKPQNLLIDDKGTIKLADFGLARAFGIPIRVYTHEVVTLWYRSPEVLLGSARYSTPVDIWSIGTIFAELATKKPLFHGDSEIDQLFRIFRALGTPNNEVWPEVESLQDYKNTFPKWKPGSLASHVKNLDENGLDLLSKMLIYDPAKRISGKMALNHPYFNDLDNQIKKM
T3 sequence (P14635 whole entry partner): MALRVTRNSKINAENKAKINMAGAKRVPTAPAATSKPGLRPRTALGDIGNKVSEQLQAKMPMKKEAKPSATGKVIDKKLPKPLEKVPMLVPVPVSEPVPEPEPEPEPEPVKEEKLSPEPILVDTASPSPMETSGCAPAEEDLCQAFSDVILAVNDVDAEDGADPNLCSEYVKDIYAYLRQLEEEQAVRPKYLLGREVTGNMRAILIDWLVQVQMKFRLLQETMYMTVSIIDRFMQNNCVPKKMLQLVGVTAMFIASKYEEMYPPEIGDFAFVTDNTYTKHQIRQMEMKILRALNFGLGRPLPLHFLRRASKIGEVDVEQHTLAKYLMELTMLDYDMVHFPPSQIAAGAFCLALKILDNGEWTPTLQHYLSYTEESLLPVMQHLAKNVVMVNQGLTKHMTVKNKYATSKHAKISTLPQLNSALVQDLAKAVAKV

Row | SMILES | Ki (CDK2/cyclin A) | IC50 (HCT116) | IC90 (HCT116) | Ki [1] | Ki [2] | IC50 (Saos-2) | IC90 (Saos-2) | IC50 (U2-OS) | IC90 (U2-OS) | % inhibition of growth in parentheses after >25 (U2-OS) | % inhibition of growth in parentheses after >25 (Saos-2) | % inhibition of growth in parentheses after >25 (HCT116; concentration not given)
1 | Nc1nc(Nc2ccc(S(N)(=O)=O)cc2)sc1C(=O)c1c(F)cccc1C(F)(F)F [C(99), 4-[4-Amino-5-(2-fluoro-6-trifluoromethyl-benzoyl)-thiazol-2-ylamino]-benzenesulfonamide] | 0.0395 µM | 0.88 µM | 2.7 µM | 0.0164 µM | 0.04 µM | 1.1 µM | 2.9 µM | 4 µM | 8 µM | – | – | –
2 | Nc1nc(Nc2ccc(N3CCNCC3)cc2)sc1C(=O)c1c(Cl)cc(Cl)cc1Cl [J(1), [4-Amino-2-(4-piperazin-1-yl-phenylamino)-thiazol-5-yl]-(2,4,6-trichloro-phenyl)-methanone] | 0.452 µM | 1.3 µM | 3 µM | 0.0023 µM | 0.732 µM | 1 µM | 5.9 µM | 3.5 µM | 5.9 µM | – | – | –
3 | Nc1nc(Nc2ccc3nc[nH]c3c2)sc1C(=O)c1c(Cl)cncc1Cl [C(63), [4-Amino-2-(1H-benzoimidazol-5-yl-amino)-thiazol-5-yl]-(3,5-dichloro-pyridin-4-yl)-methanone] | 0.2 µM | 12 µM | 22 µM | 0.017 µM | 0.133 µM | 9 µM | 20 µM | 16 µM | > 25 µM | 84% | – | –
4 | CC(=O)N1CCN(c2ccc(Nc3nc(N)c(C(=O)c4sccc4C)s3)cc2)CC1 [C(98), 2-[4-(1-Acetyl-piperazine-4-yl)-phenylamino]-4-amino-thiazol-5-yl-(3-methyl-thiophen-2-yl)-methanone] | 0.565 µM | 1.3 µM | 2.9 µM | 0.027 µM | 0.72 µM | 2.7 µM | 5.3 µM | 2.4 µM | 5.2 µM | – | – | –
5 | Cc1ccsc1C(=O)c1sc(Nc2ccc(C(=O)C3COC(=O)[C@H]3N)cc2)nc1N (stereo partly drawn) [C(45), trans-3RS-Amino-4RS-{4-[4-amino-5-(3-methyl-thiophene-2-carbonyl)-thiazol-2-ylamino]-benzoyl}-dihydro-furan-2-one] | 0.103 µM | 2 µM | 8 µM | 0.051 µM | 0.249 µM | 2 µM | 10 µM | 5.5 µM | 12 µM | – | – | –
6 | Nc1ccc(Cl)c(C(=O)c2sc(Nc3ccc(N4CCNCC4)cc3)nc2N)c1Cl [H(2), (3-Amino-2,6-dichloro-phenyl)-[4-amino-2-(4-piperazin-1-yl-phenylamino)-thiazol-5-yl]-methanone Trihydrochloride] | 0.474 µM | 15 µM | 25 µM | 0.0036 µM | 0.361 µM | 13 µM | 22 µM | 16 µM | 21 µM | – | – | –
7 | CC(=O)Nc1ccc(Cl)c(C(=O)c2sc(Nc3ccc(N4CCN(C)CC4)cc3)nc2N)c1Cl [C(86), N-(3-{4-Amino-2-[4-(4-methyl-piperazin-1-yl)-phenylamino]-thiazole-5-carbonyl}-2,4-dichloro-phenyl)-acetamide] | 1.1 µM | 6.5 µM | 17 µM | 0.015 µM | 1.31 µM | 12 µM | 22 µM | 14 µM | 22 µM | – | – | –
8 | Nc1nc(Nc2ccc3nc[nH]c3c2)sc1C(=O)c1c(Cl)cc(C(F)(F)F)cc1Cl [C(37), [4-Amino-2-(1H-benzoimidazol-6-ylamino)-thiazol-5-yl]-(2,6-dichloro-4-trifluoromethyl-phenyl)-methanone] | 0.31 µM | 10 µM | 25 µM | 0.007 µM | 0.233 µM | 14 µM | > 25 µM | 16 µM | > 25 µM | (80%) | (70%) | –
9 | CN1CCN(c2ccc(Nc3nc(N)c(C(=O)c4c(Cl)cncc4Cl)s3)cc2)CC1 [C(70), {4-Amino-2-[4-(4-methyl-piperazin-1-yl)-phenylamino]-thiazol-5-yl}-(3,5-dichloro-pyridin-4-yl)-methanone] | 1.12 µM | 2.2 µM | 5.9 µM | 0.0028 µM | 1.37 µM | 5.8 µM | 12 µM | 5 µM | 11 µM | – | – | –
10 | Nc1nc(Nc2ccc(N3CCNC(=O)C3)cc2)sc1C(=O)c1c(F)cccc1F [C(120), 4-{4-[4-Amino-5-(2,6-difluoro-benzoyl)-thiazol-2-ylamino]-phenyl}-piperazin-2-one] | 0.08 µM | 3.5 µM | 6 µM | 0.0109 µM | 0.062 µM | 2.6 µM | 5.2 µM | 5.7 µM | 11 µM | – | – | –
11 | Nc1nc(Nc2ccc(N3CCSCC3)cc2)sc1C(=O)c1c(F)cccc1F [C(119), [4-Amino-2-(4-thiomorpholin-4-yl-phenylamino)-thiazol-5-yl]-(2,6-difluoro-phenyl)-methanone] | 0.086 µM | 4 µM | 7 µM | 0.024 µM | 0.247 µM | 7 µM | 13 µM | 7.8 µM | 12 µM | – | – | –
12 | Nc1nc(Nc2ccc(N3CCNCC3)cc2)sc1C(=O)c1c(Cl)cccc1Cl [H(3), [4-Amino-2-(4-piperazin-1-yl-phenylamino)-thiazol-5-yl]-(2,6-dichloro-phenyl)-methanone] | 0.405 µM | 0.88 µM | 2.4 µM | 0.0024 µM | 0.472 µM | 1.8 µM | 3 µM | 3.5 µM | 5.8 µM | – | – | –
13 | CNS(=O)(=O)c1ccc(Nc2nc(N)c(C(=O)c3sccc3C)s2)cc1 [C(114), 4-[4-Amino-5-(3-methyl-thiophene-2-carbonyl)-thiazol-2-ylamino]-N-methyl-benzenesulfonamide] | 0.0085 µM | 1.1 µM | 2.8 µM | 0.021 µM | 0.028 µM | 1.3 µM | 4.8 µM | 3 µM | 5.2 µM | – | – | –
14 | Nc1nc(Nc2ccc(N3CCOCC3)cc2)sc1C(=O)c1c(Cl)cccc1Cl [C(55), [4-Amino-2-(4-morpholin-4-yl-phenylamino)-thiazol-5-yl]-(2,6-dichloro-phenyl)-methanone] | 0.493 µM | 4.3 µM | 17 µM | 0.0085 µM | 0.504 µM | 17 µM | > 25 µM | 18 µM | > 25 µM | (74%) | 69% | –
15 | CN1CCN(c2ccc(Nc3nc(N)c(C(=O)c4c(Cl)cc(Br)c(N)c4Cl)s3)cc2)CC1 [C(96), (3-Amino-4-bromo-2,6-dichloro-phenyl)-{4-amino-2-[4-(4-methyl-piperazin-1-yl)-phenylamino]-thiazol-5-yl}-methanone] | 0.324 µM | 18 µM | > 25 µM | 0.0015 µM | 0.231 µM | 4.2 µM | 10 µM | 8 µM | 12 µM | – | – | (82%)
